Test results taken from patent US8772504B2, “Substituted benzoxazole, benzimidazole, oxazolopyridine and imidazopyridine derivatives as gamma secretase modulators” (Janssen Pharmaceuticals, Inc., priority 2009, dated 2014).

Key:
Aβ42 = assay: Screening for γ-secretase-modulating activity, Method 1: Aβ42 sandwich ELISA on SKNBE2 cell media; assay type: cell-based; conditions: SKNBE2 cells carrying APP 695 wild type
Protocol: (§1) Screening was carried out using SKNBE2 cells carrying the APP 695—wild type, grown in Dulbecco's Modified Eagle's Medium/Nutrient mixture F-12 (DMEM/NUT-mix F-12) (HAM) provided by Gibco (cat no. 31330-38) containing 5% Serum/Fe supplemented with 1% non-essential amino acids. Cells were grown to near confluency.
(§2) The screening was performed using the assay as described in Citron et al (1997) Nature Medicine 3: 67. Briefly, cells were plated in a 96-well plate at about 10^5 cells/ml one day prior to addition of compounds. Compounds were added to the cells in Ultraculture (Lonza, BE12-725F) supplemented with 1% glutamine (Invitrogen, 25030-024) for 18 hours. The media were assayed by two sandwich ELISAs, for Aβ42 and Aβtotal. Toxicity of the compounds was assayed by WST-1 cell proliferation reagent (Roche, 1 644 807) according to the manufacturer's protocol.
To quantify the amount of Aβ42 in the cell supernatant, commercially available Enzyme-Linked-Immunosorbent-Assay (ELISA) kits were used (Innotest® β-Amyloid(1-42), Innogenetics N.V., Ghent, Belgium). The Aβ42 ELISA was performed essentially according to the manufacturer's protocol. Briefly, the standards (dilutions of synthetic Aβ1-42) were prepared in polypropylene Eppendorf with final concentrations of 8000 down to 3.9 pg/ml (1/2 dilution step). Samples, standards and blanks (100 μl) were added to the anti-Aβ42-coated plate supplied with the kit (the capture antibody selectively recognizes the C-terminal end of the antigen). The plate was allowed to incubate 3 h at 25° C. in order to allow formation of the antibody-amyloid complex. Following this incubation and subsequent wash steps a selective anti-Aβ-antibody conjugate (biotinylated 3D6) was added and incubated for a minimum of 1 hour in order to allow formation of the antibody-Amyloid-antibody-complex. After incubation and appropriate wash steps, a Streptavidine-Peroxidase-Conjugate was added, followed 30 minutes later by an addition of 3,3′,5,5′-tetramethylbenzidine (TMB)/peroxide mixture, resulting in the conversion of the substrate into a coloured product. This reaction was stopped by the addition of sulfuric acid (0.9 N) and the colour intensity was measured by means of photometry with an ELISA-reader with a 450 nm filter.
(§3) To obtain the values reported in Table 3a, the sigmoidal dose response curves were analysed by computerised curve-fitting, with percent of inhibition plotted against compound concentration. A 4-parameter equation (model 205) in XLfit was used to determine the IC50. The top and the bottom of the curve were fixed to 100 and 0, respectively, and the hill slope was fixed to 1. The IC50 represents the concentration of a compound that is required for inhibiting a biological effect by 50% (Here, it is the concentration where Aβ peptide level is reduced by 50%).
(§4) To obtain the values reported in Table 3b, the data were calculated as percentage of the maximum amount of amyloid Beta 42 measured in the absence of the test compound. The sigmoidal dose response curves were analyzed using non-linear regression analysis with percentage of the control plotted against the log concentration of the compound. A 4-parameter equation was used to determine the IC50. The values reported in Table 3b are averaged IC50 values.

Aβtotal = assay: Screening for γ-secretase-modulating activity, Method 1: Aβtotal sandwich ELISA on SKNBE2 cell media; assay type: cell-based; conditions: SKNBE2 cells carrying APP 695 wild type
Protocol: as §1, §2
To quantify the amount of Aβtotal in the cell supernatant, samples and standards were added to a 6E10-coated plate. The plate was allowed to incubate overnight at 4° C. in order to allow formation of the antibody-amyloid complex. Following this incubation and subsequent wash steps a selective anti-Aβ-antibody conjugate (biotinylated 4G8) was added and incubated for a minimum of 1 hour in order to allow formation of the antibody-Amyloid-antibody-complex. After incubation and appropriate wash steps, a Streptavidine-Peroxidase-Conjugate was added, followed 30 minutes later by an addition of Quanta Blu fluorogenic peroxidase substrate according to the manufacturer's instructions (Pierce Corp., Rockford, Ill.).
as §3, §4

[1] = Homo sapiens, Table 3a, 18 hours, XLfit, top/bottom fixed to 100 and 0, hill slope 1
[2] = Homo sapiens, Table 3b, non-linear regression of % of control, averaged IC50 values
[3] = Table 3a, 18 hours, XLfit, top/bottom fixed to 100 and 0, hill slope 1
[4] = Table 3b, non-linear regression of % of control, averaged IC50 values

Row | Compound | IC50 (Aβ42; [1]) [nM] | IC50 (Aβ42; [2]) [nM] | IC50 (Aβtotal; [1]) [nM] | IC50 (Aβtotal; [2]) [nM] | IC50 (Aβ42; [3]) [nM] | IC50 (Aβ42; [4]) [nM] | IC50 (Aβtotal; [3]) [nM] | IC50 (Aβtotal; [4]) [nM]
1 | COc1cc(Nc2cccc3c2nc(CC2CCN(C(C)=O)CC2)n3C)ccc1-n1cnc(C)c1 [Compound 10] | 751 | 575 | > 30000 | 29500 | – | – | – | –
2 | COc1cc(Nc2cccc3c2nc(CC2CCN(C)CC2)n3C)ccc1-n1cnc(C)c1 [Compound 11] | 1590 | 1260 | 12000 | 16600 | – | – | – | –
3 | Cc1ncnn1-c1ccc(Nc2nccc3c2nc(-c2ccc(F)cc2)n3C(C)C)cc1F [Compound 13] | 603 | 603 | > 10000 | > 10000 | – | – | – | –
4 | Cc1ncn(-c2ccc(Nc3cc(C(F)(F)F)cc4c3nc(-c3ccc(F)cc3)n4C)cn2)n1 [Compound 14] | 132 | 132 | > 10000 | > 10000 | – | – | – | –
5 | COc1cc(Nc2cccc3oc(-c4ccccc4Cl)nc23)ccc1-n1cnc(C)c1 [Compound 16] | 267 | 257 | > 10000 | > 10000 | – | – | – | –
6 | COc1cc(Nc2cccc3oc(C4CCCCC4)nc23)ccc1-n1cnc(C)c1 [Compound 17] | 178 | 174 | > 3000 | > 3000 | – | – | – | –
7 | COc1cc(Nc2cccc3c2nc(C)n3C)ccc1-n1cnc(C)c1 [Compound 19] | – | – | – | – | 1660 | 1660 | > 10000 | > 10000
8 | COc1cc(Nc2cccc3c2nc(C)n3C(C)C)ccc1-n1cnc(C)n1 [Compound 21] | – | – | – | – | 905 | 891 | > 33000 | 45700
9 | CCCCc1nc2c(Nc3ccc(-n4cnc(C)n4)c(F)c3)cccc2n1C [Compound 24] | – | – | – | – | 505 | 380 | 18000 | 17800
10 | COc1cc(Nc2cccc3c2nc(CC(C)C)n3C)ccc1-n1cnc(C)c1 [Compound 25] | – | – | – | – | 19 | 19 | > 3000 | > 3000
11 | Cc1ncn(-c2ccc(Nc3cccc4c3nc(CC(C)C)n4CC(C)C)cc2)n1 [Compound 26] | – | – | – | – | 517 | 708 | > 10000 | > 10000
12 | COCCn1c(CC(C)C)nc2c(Nc3ccc(-n4cnc(C)n4)cc3)cccc21 [Compound 27] | – | – | – | – | 1250 | 1120 | > 10000 | 17400
13 | COc1cc(Nc2cccc3oc(CC(C)C)nc23)ccc1-n1cnc(C)n1 [Compound 28] | – | – | – | – | 1350 | 1350 | > 3000 | > 3000
14 | COc1cc(Nc2cccc3c2nc(C(C)(C)C)n3C)ccc1-n1cnc(C)c1 [Compound 29] | – | – | – | – | 1090 | 437 | > 10000 | > 10000
15 | COc1cc(Nc2cccc3oc(C(C)(C)C)nc23)ccc1-n1cnc(C)c1 [Compound 30] | – | – | – | – | 790 | 794 | > 3000 | > 3000
16 | COc1cc(Nc2cccc3c2nc(OC(C)C)n3C)ccc1-n1cnc(C)c1 [Compound 31] | – | – | – | – | 550 | 501 | 29700 | > 30000
17 | COCCCc1nc2c(Nc3ccc(-n4cnc(C)c4)c(OC)c3)cccc2n1C [Compound 32] | – | – | – | – | 216 | 209 | > 10000 | > 10000
18 | COc1cc(Nc2cccc3c2nc(CCC(F)(F)F)n3C)ccc1-n1cnc(C)c1 [Compound 34] | – | – | – | – | 51 | 43 | > 1000 | > 1000
